Source: PubChem BioAssay (NCI)
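Cultured in 96-well plates, cells were exposed to test compound for 48 hours across five concentrations. Definition used: TGI = concentration required for complete inhibition of growth.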

Assays:
Experiment in all cases: NCI anticancer screen, dose series, 48 h
HCC-2998 colon = test system: HCC-2998 colon
HCT-116 colon = test system: HCT-116 colon
SK-MEL-5 melanoma = test system: SK-MEL-5 melanoma
UACC-257 melanoma = test system: UACC-257 melanoma
NCI/ADR-RES ovarian = test system: NCI/ADR-RES ovarian
PC-3 prostate = test system: PC-3 prostate
OVCAR-4 ovarian = test system: OVCAR-4 ovarian
MOLT-4 leukemia = test system: MOLT-4 leukemia
SF-268 CNS = test system: SF-268 CNS
NCI-H522 lung = test system: NCI-H522 lung
KM12 colon = test system: KM12 colon
A549 NSCLC = test system: A549 NSCLC
RPMI-8226 leukemia = test system: RPMI-8226 leukemia
HCT-15 colon = test system: HCT-15 colon
CAKI-1 renal = test system: CAKI-1 renal
OVCAR-8 ovarian = test system: OVCAR-8 ovarian
MDA-MB-231 breast = test system: MDA-MB-231 breast
CCRF-CEM leukemia = test system: CCRF-CEM leukemia
OVCAR-5 ovarian = test system: OVCAR-5 ovarian
LOX IMVI melanoma = test system: LOX IMVI melanoma
SNB-19 CNS = test system: SNB-19 CNS
SW-620 colon = test system: SW-620 colon
UO-31 renal = test system: UO-31 renal
COLO 205 colon = test system: COLO 205 colon
EKVX NSCLC = test system: EKVX NSCLC
OVCAR-3 ovarian = test system: OVCAR-3 ovarian
SF-539 CNS = test system: SF-539 CNS
M14 melanoma = test system: M14 melanoma
SK-MEL-28 melanoma = test system: SK-MEL-28 melanoma
HOP-92 NSCLC = test system: HOP-92 NSCLC
NCI-H460 lung = test system: NCI-H460 lung
SF-295 CNS = test system: SF-295 CNS
IGROV1 ovarian = test system: IGROV1 ovarian
BT-549 breast = test system: BT-549 breast
TK-10 renal = test system: TK-10 renal
U251 CNS = test system: U251 CNS
MDA-N = test system: MDA-N
786-0 renal = test system: 786-0 renal
NCI-H23 lung = test system: NCI-H23 lung
HL-60(TB) leukemia = test system: HL-60(TB) leukemia
K-562 leukemia = test system: K-562 leukemia
HS 578T breast = test system: HS 578T breast
MDA-MB-435 = test system: MDA-MB-435
SK-MEL-2 melanoma = test system: SK-MEL-2 melanoma
HT29 colon = test system: HT29 colon
NCI-H226 lung = test system: NCI-H226 lung
SN12C renal = test system: SN12C renal
MCF7 breast = test system: MCF7 breast
HOP-62 NSCLC = test system: HOP-62 NSCLC
SK-OV-3 ovarian = test system: SK-OV-3 ovarian
RXF 393 renal = test system: RXF 393 renal
T-47D breast = test system: T-47D breast
A498 renal = test system: A498 renal
DU-145 prostate = test system: DU-145 prostate
MALME-3M melanoma = test system: MALME-3M melanoma
UACC-62 melanoma = test system: UACC-62 melanoma
ACHN renal = test system: ACHN renal

Measured: TGI

Cc1ccc(C(=O)N/N=C(\N=Nc2ccccc2C(=O)O)c2ccc(N(C)C)cc2)cc1
99.3 µM: OVCAR-3 ovarian
57.7 µM: MDA-N
not listed: HOP-62 NSCLC | SK-OV-3 ovarian | RXF 393 renal | T-47D breast | A498 renal | DU-145 prostate | MALME-3M melanoma | UACC-62 melanoma | ACHN renal
> 100 µM: all other assays above

N/C(CC(=O)NOC(=O)c1ccccc1)=N/OC(=O)c1ccccc1
97.3 µM: SK-OV-3 ovarian
75.1 µM: SF-268 CNS
71.7 µM: K-562 leukemia
77.6 µM: BT-549 breast
54.8 µM: SF-539 CNS
53.9 µM: UO-31 renal
61.6 µM: SF-295 CNS
92.5 µM: NCI-H226 lung
60.6 µM: RXF 393 renal
38.5 µM: LOX IMVI melanoma
31.7 µM: IGROV1 ovarian
75 µM: OVCAR-4 ovarian
77.5 µM: EKVX NSCLC
99.4 µM: SK-MEL-28 melanoma
92.4 µM: MCF7 breast
75.9 µM: MOLT-4 leukemia
not listed: HCC-2998 colon | NCI-H522 lung | SK-MEL-2 melanoma
> 100 µM: all other assays above
